Measured values reported in the NIST ThermoML archive (doi:10.1021/je060271a).
± gives the expanded uncertainty stated by the source.

Details: 323.14 K, Liquid, Vibrating tube method

Measured: mass density

CCCCCCC(=O)OCC(COC(=O)CCCCCC)(COC(=O)CCCCCC)COC(=O)CCCCCC [pentaerythritol tetraheptanoate]
971.6 ± 1.2 kg/m3: 24645 kPa | 24799 kPa | 24824 kPa | 24848 kPa | 24903 kPa | 24928 kPa
971.3 ± 1.2 kg/m3: 24490 kPa
971 ± 1.2 kg/m3: 23755 kPa | 23827 kPa | 23875 kPa | 23921 kPa | 23948 kPa
970.9 ± 1.2 kg/m3: 23496 kPa | 23777 kPa | 23853 kPa
971.7 ± 1.2 kg/m3: 24957 kPa | 25006 kPa | 25061 kPa
971.5 ± 1.2 kg/m3: 24592 kPa | 24693 kPa | 24722 kPa | 24746 kPa | 24874 kPa | 24981 kPa
970.5 ± 1.2 kg/m3: 23064 kPa | 23178 kPa | 23225 kPa | 23246 kPa
970.7 ± 1.2 kg/m3: 23268 kPa | 23294 kPa | 23315 kPa | 23358 kPa | 23474 kPa
971.9 ± 1.2 kg/m3: 25387 kPa
972.3 ± 1.2 kg/m3: 25860 kPa | 25888 kPa
971.4 ± 1.2 kg/m3: 24439 kPa
972.1 ± 1.2 kg/m3: 25633 kPa
971.8 ± 1.2 kg/m3: 25031 kPa
971.1 ± 1.2 kg/m3: 23805 kPa | 23898 kPa
972 ± 1.2 kg/m3: 25413 kPa | 25717 kPa | 25828 kPa
970.6 ± 1.2 kg/m3: 23111 kPa | 23132 kPa | 23157 kPa | 23200 kPa
970.8 ± 1.2 kg/m3: 23384 kPa | 23431 kPa | 23453 kPa | 23522 kPa | 23544 kPa | 23566 kPa | 23592 kPa | 23614 kPa
